# Data: patent publication US7390870B2, “Immune-enhancing peptides” (Posco, priority 2001, dated 2008)
# No end group written: not given here.
# Columns and labels:
# [1] = test system: differentiated HL60 cells; assay: Superoxide generation in differentiated HL60 cells; format: cell-based, human; details: similar concentrations as for the [Ca2+]i increase
# Description: For initial screening of the PS-SPCLs, the superoxide anion generation of each peptide pool was evaluated by measuring reduction of cytochrome c using a microtiter 96 well plate ELISA reader (Bio-Tekinstruments, EL312e, Winooski, Vt.) as described (20). The cytochrome c was purchased from Sigma (St. Louis, Mo.). The human monocytes (9×10^5 cells/100 □ of RPMI 1640 medium per well of a 96-well plate) were preincubated with 50 μM cytochrome c at 37° C. for 1 minute and then incubated with the indicated concentrations of peptide pools (final 0.5 nM per peptide sequence for the initial screening). The superoxide generation was measured as change in light absorption at 550 nm over 5 minutes at 1 minute intervals. From at least four independent experiments, peptides with active amino acids at each position were chosen. Superoxide generation by the identified peptides was measured by the same method. Spurious reduction of cytochrome c was ruled out by checking that the peptides-induced ones were superoxide dismutase-inhibitable in all experiments.
# A test where the three peptides on HL60 cells that had differentiated into granulocytes after having been cultured in the presence of 1.25% DMSO for 4 days was performed. HL60 cells were cultured in RPMI medium containing 20% FCS. […] The peak level of the [Ca^2+]i increase was recorded. […]
# [2] = test system: differentiated HL60 cells; assay: [Ca2+]i increase in differentiated HL60 cells (dHL60, granulocyte phenotype); format: cell-based, human; details: FIG. 5; various concentrations
# Description: U937 (human histiocytic lymphoma cells), HL60 (human promyelocytic leukemia cells), Jurkat (human T cell leukemia cells), NIH3T3 (NIH Swiss mouse embryo fibroblasts), 3Y1 (Rat embryonic fibroblasts), 3T3L1 (preadipocytes), and PC12 (rat adrenal pheochromocytoma cells) were obtained from the American Type Culture Collection (Rockville, Md.) and maintained as re, commended. The cells were maintained at about 1×10^6 cells/ml under standard incubator conditions (humidified atmosphere, 95% air, 5% CO2, 37° C.). HL60 cells were induced to differentiate into the granulocyte phenotype by adding dimethylsulfoxide (DMSO) (final concentration 1.25%, v/v) for 4 days to the culture medium as has been described before (18).
# The level of [Ca^2+]i was determined by Grynkiewicz's method using fura-2/AM (21). Briefly, prepared cells were incubated with 3 μM fura-2/AM at 37° C. for 50 minutes in a fresh serum-free RPMI 1640 medium under continuous stirring. […] The fluorescence changes at the dual excitation wavelengths of 340 nm and 380 nm and the emission wavelength of 500 nm were measured, and the calibrated fluorescence ratio was translated into [Ca^2+]i.
# A test where the three peptides on HL60 cells that had differentiated into granulocytes after having been cultured in the presence of 1.25% DMSO for 4 days was performed. […] The peak level of the [Ca^2+]i increase was recorded. […]
# [3] = test system: monocytes; assay: Receptor specificity: monocyte chemotaxis after preincubation with a peptide; format: cell-based, human; details: FIG. 9, preincubation 10 μM peptide 10 minutes
# Description: (§1) Chemotaxis assays of the peptide were performed using multiwell chambers (Neuroprobe Inc., Gaithersburg, Md.) (20). Briefly, the prepared isolated human monocytes were suspended in RPMI at a concentration of 1×10^6 cells/ml of serum-free RPMI, and 25 □ of the suspension were placed onto the upper well of a 96-well chemotaxis chamber that was separated by a […] filter with a 5 □ pore size (3 □ diameter pores not coated with polyvinylpyrrolidone for neutrophils) from peptides or an fMLF-containing lower well. After incubation for 2 hours (90 minutes for neutrophils) at 37° C., non-migrated cells were removed by scraping them out, and cells that migrated across the filter were dehydrated, fixed, and stained with hematoxylin (Sigma, St. Louis, Mo.). The stained cells in five randomly chosen high power fields (HPF) (400×) in that well were then counted (21). The numbers of migrated cells were determined by counting them in a high power field (400×). For a checkboard analysis, cells were re-suspended in RPMI containing various concentrations of the peptide just before transferring them to the upper wells as described before (22).
# The three peptides, HFYLPM, MFYLPM, and HFYLPm which have similar sequences, exerted similar effects on human leukocytes in that they stimulated superoxide generation and chemotactic migration involving PTX-sensitive G-protein(s). So an attempt to reveal whether the three peptides acted through the same or different receptor(s) was carried out. For this purpose, monocytes were preincubated with 10 μM of each peptide, HFYLPM, MFYLPM, or HFYLPm for 10 minutes at 37° C., or they remained untreated. After washing twice, the cells were used for chemotaxis assay. The cells were allowed to migrate towards the maximal effective concentrations of each peptide (1 μM HFYLPM, 1 μM MFYLPM, or 10 nM HFYLPm) or medium. After fixing and staining of the membrane, migrated cells were quantified microscopically. […]
# [4] = test system: human monocytes; assay: Checkboard analysis of monocyte migration across polycarbonate membrane; format: cell-based; details: 2 hr
# Description: as §1
# To distinguish whether the peptide-induced monocyte migration is chemotaxis or chemokinesis, a checkboard analysis was performed as described above (22, 26).
substance,measurement,setting,value
Met-Phe-Tyr-Leu-Pro-Met-CONH2 (MFYLPM-NH2),superoxide generation in differentiated HL60 cells,[1],resulted in superoxide generation
same,[Ca2+]i rise in differentiated HL60 cells,[2],stimulated both undifferentiated and differentiated HL60 cells
same,inhibition of HFYLPm-induced cell migration by preincubation with peptide,[3]; migration towards 10 nM HFYLPm,no inhibition
same,inhibition of HFYLPm-induced cell migration by preincubation with peptide,[3]; migration towards 1 μM HFYLPM,partial inhibition
same,inhibition of MFYLPM-induced cell migration by preincubation with peptide,[3]; migration towards 1 μM MFYLPM,complete inhibition
same,migrated monocytes in 5 HPF,"[4]; peptide below 0 nM, above 10 nM",11.3 ± 2.42
same,migrated monocytes in 5 HPF,"[4]; peptide below 0 nM, above 100 nM",15.0 ± 3.50
same,migrated monocytes in 5 HPF,"[4]; peptide below 0 nM, above 1000 nM",11.0 ± 2.67
same,migrated monocytes in 5 HPF,"[4]; peptide below 10 nM, above 0 nM",198 ± 32.3
same,migrated monocytes in 5 HPF,"[4]; peptide below 10 nM, above 10 nM",33.7 ± 8.93
same,migrated monocytes in 5 HPF,"[4]; peptide below 10 nM, above 100 nM",16.0 ± 3.16
same,migrated monocytes in 5 HPF,"[4]; peptide below 10 nM, above 1000 nM",12.3 ± 3.43
same,migrated monocytes in 5 HPF,"[4]; peptide below 100 nM, above 0 nM",557 ± 29.5
same,migrated monocytes in 5 HPF,"[4]; peptide below 100 nM, above 10 nM",425 ± 48.3
same,migrated monocytes in 5 HPF,"[4]; peptide below 100 nM, above 100 nM",66.3 ± 14.9
same,migrated monocytes in 5 HPF,"[4]; peptide below 100 nM, above 1000 nM",18.0 ± 4.05
same,migrated monocytes in 5 HPF,"[4]; peptide below 1000 nM, above 0 nM",484 ± 43.6
same,migrated monocytes in 5 HPF,"[4]; peptide below 1000 nM, above 10 nM",395 ± 38.5
same,migrated monocytes in 5 HPF,"[4]; peptide below 1000 nM, above 100 nM",198 ± 26.7
same,migrated monocytes in 5 HPF,"[4]; peptide below 1000 nM, above 1000 nM",76.7 ± 18.9
